Experimental data published in paper PMC4792926, “G9a-mediated methylation of ERα links the PHF20/MOF histone acetyltransferase complex to hormonal gene expression” (Nature Communications, 2016).
“Also recorded” adds a separate entry of the source.

Assays:
G9a = conditions: cited from earlier work
From the text: Next, we sought to determine whether the methyltransferase activity of G9a is required for its co-activation of endogenous ERα target genes. […] (Supplementary Fig. 2a,b). Importantly, under these conditions, although a res ...

[1] = system: ERα target genes (GREB1, PR, TFF1); assay: qPCR of E2-induced ERα target gene expression in MCF-7 cells; assay type: cell-based, human
Experimental: (§1) Human MCF-7, T-47D, U2OS and HEK293T cells (ATCC) were cultured in DMEM (Cellgro) supplemented with 10% fetal bovine serum (FBS, Sigma). For G9a inhibitor treatment, BIX-01294 (Sigma) was added to the medium, at the indicated concentrations, 24 h before the cells were collected. For shRNA knockdown, 293T cells were co-transfected with pMD2.G and pPAX2 (Addgene) together with pLKO-shRNA constructs or a non-targeting pLKO-shRNA (pLKO-shCtrl). Viral supernatants were harvested after 48 h. For infections, MCF-7 or T-47D cells were incubated with viral supernatants in the presence of 8 μg ml^−1 polybrene. After 48 h, puromycin (2 μg ml^−1) was added to the DMEM. Cells were grown, with selection for 5–7 days to select for stable knockdown cells before oestrogen treatment. For oestrogen treatment, cells were starved in phenol red-free DMEM supplemented with 10% charcoal-stripped FBS (Sigma) for 3–4 days, and 10 nM 17β-estradiol (Sigma) or ethanol (vehicle) were added to the medium (3 or 6 h for gene expression studies, and 15 and 45 min for ChIP experiments) before the cells were collected.
(§2) Reverse transcription and real-time PCR were performed as described previously. mRNA was prepared using the RNeasy Plus kit (Qiagen) and reverse transcribed using the First Strand Synthesis kit (Invitrogen). Quantitative real-time RT–PCR (qPCR) was performed on an ABI 7500-FAST Sequence Detection System using the Power SYBR Green PCR Master Mix (Applied Biosystems). Gene expression was calculated following normalization to GAPDH levels using the comparative Ct (cycle threshold) method and is shown as ‘Fold' relative to the expression of each gene in the control cells without E2 treatment that was arbitrarily set as ‘1'. The primer sequences used for RT–PCR are listed in Supplementary Table 5.

MCF-7 cells [2] = assay: MCF-7 cell proliferation (cell counting); assay type: cell-based, human; conditions: different doses; cell numbers counted for 6 days
Experimental: (§3) Human MCF-7, T-47D, U2OS and HEK293T cells (ATCC) were cultured in DMEM (Cellgro) supplemented with 10% fetal bovine serum (FBS, Sigma). For G9a inhibitor treatment, BIX-01294 (Sigma) was added to the medium, at the indicated concentrations, 24 h before the cells were collected. For shRNA knockdown, 293T cells were co-transfected with pMD2.G and pPAX2 (Addgene) together with pLKO-shRNA constructs or a non-targeting pLKO-shRNA (pLKO-shCtrl). Viral supernatants were harvested after 48 h. For infections, MCF-7 or T-47D cells were incubated with viral supernatants in the presence of 8 μg ml^−1 polybrene. After 48 h, puromycin (2 μg ml^−1) was added to the DMEM. […]
(a, b) Growth curves of control (shCtrl) and G9a knockdown (shG9a) MCF-7 cells. Cells from 6 wells were counted in triplicates every two days, for 8 days (a) or 6 days (b) after seeding.
(c, d) G9a is required for cell growth in colony formation assays. […] Colonies arising from control and G9 knockdown MCF-7 cells were counted two weeks after seeding (d)
(e) G9a depletion reduces the anchorage-independent growth of MCF-7 cells. […] After four weeks, colonies were counted. At least 5 fields of view were counted for each well.
(f) The catalytic activity of G9a is required for cell growth. MCF-7 cells treated with the indicated doses of BIX-01249 were counted 6 days after seeding. […]

PHF20–ERα interaction = assay: Co-IP of ERα and PHF20 in HEK-293T cells; assay type: cell-based, human; conditions: 24 h before co-IP; Flag-ERα and Myc-PHF20 co-transfected HEK-293T
Experimental: as §1
For immunoprecipitation (IP) experiments, each cell fraction was incubated with the anti-FLAG M2-conjugated agarose beads overnight at 4 °C. The beads were washed 3–6 times with cell lysis buffer, and the bound proteins were eluted in SDS buffer and analysed by western blot. […]

MAGE-A2 = assay: qPCR of MAGE-A2, a G9a-repressed gene, in MCF-7 cells; assay type: cell-based, human; conditions: 4 and 8 μM for 24 h, mean +/- S.E.M. of two experiments
Experimental: as §3, with “DMEM. Cells were grown, with selection for 5–7 days to select for stable knockdown cells before oestrogen treatment.” for “DMEM.”
as §2, with “The primer sequences used for RT–PCR are listed in Supplementary Table 5.” left out

endogenous G9a = assay: Global histone H3K9me2 western blot (endogenous G9a activity) in MCF-7 cells; assay type: cell-based, human; conditions: 4 and 8 μM for 24 h
Experimental: as §1

MCF-7 cells [3] = assay: Colony formation assay, MCF-7; assay type: cell-based, human
Experimental: MCF-7 cells treated with shRNAs or BIX-01294 were seeded in six-well plates (1,000 cells per well) and grown in DMEM plus 10% FBS at 37 °C for 10–14 days. For anchorage-independent cell growth assays, 4,000 MCF-7 cells were suspended in DMEM containing 0.4% agar and seeded into six-well plates pre-coated with a base layer of 0.6% agar and grown at 37 °C for 4 weeks. Cells were fixed, stained with 0.005% crystal violet blue and photographed. Colony numbers were counted using ImageJ software with size cutoff of 75 μm. Results were quantitated from three to six wells or three to five views of each well from three independent replicates.

[4] = system: G9a, PHF20 and ERα protein levels; assay: Western blot of total G9a, PHF20 and ERα in whole cell extract, HEK-293T cells; assay type: cell-based, human; conditions: 24 h; WCE western blot
Experimental: as §1

COc1cc2nc(N3CCCN(C)CC3)nc(NC3CCN(Cc4ccccc4)CC3)c2cc1OC [BIX-01294]
G9a inhibition selectivity (G9a): selective G9a inhibitor
E2-induced activation of GREB1 and PR under BIX-01294 ([1]; 4 or 8 μM BIX-01294, 10 nM E2 for 3 h, qPCR, two experiments): clearly impaired by BIX-01294 in a dose-dependent manner; also recorded: inhibits E2-induced activation of GREB1 and PR
residual E2-dependent response under BIX-01294 ([1]; BIX-01294-treated MCF-7 cells, E2): a residual E2 response was sufficient to maintain GREB1 gene expression; also recorded: there was still an E2-dependent response
E2-dependent gene activation under BIX-01294 ([1]; MCF-7, BIX-01294-treated (discussion)): greatly reduced E2-dependent gene activation
cell proliferation (MCF-7 cells [2]): inhibited cell proliferation in a dose-dependent manner
PHF20–ERα interaction (PHF20–ERα interaction): markedly diminished the PHF20–ERα interaction; also recorded: diminishes the interaction between ERα and PHF20 in cells
derepression of MAGE-A2 (MAGE-A2): derepression of MAGE-A2; also recorded: induces the derepression
enzymatic activity of endogenous G9a (global H3K9 methylation levels) (endogenous G9a): effectively inhibited; also recorded: reduces global H3K9me2 levels
colony formation (MCF-7 cells [3]; 0.5 or 1 μM, 10–14 days, crystal violet): greatly suppressed colony formation
cell survival (MCF-7 cells [3]; indicated doses, MCF-7 colonies, at least three experiments): inhibits cell survival
total levels of G9a, PHF20 and ERα [4]: not affected
